Experimental data taken from patent US20140155389A1, “BICYCLIC INHIBITORS OF ALK” (ABBVIE INC., priority 2011, published 2014).

Target: T1, ALK (Homo sapiens, UniProt Q9UM73)
T1 construct: purchased Millipore
Experiment: ALK kinase assay (HTRF)
Assay type: biochemical
Conditions: apparent Ki from IC50 by Cheng-Prusoff; ALK (Millipore) 3 nM or 4 nM, 50 μM ATP, 1 h at room temperature; read-out: HTRF_ALK Human - Ki

T1 sequence (Q9UM73 19-1620): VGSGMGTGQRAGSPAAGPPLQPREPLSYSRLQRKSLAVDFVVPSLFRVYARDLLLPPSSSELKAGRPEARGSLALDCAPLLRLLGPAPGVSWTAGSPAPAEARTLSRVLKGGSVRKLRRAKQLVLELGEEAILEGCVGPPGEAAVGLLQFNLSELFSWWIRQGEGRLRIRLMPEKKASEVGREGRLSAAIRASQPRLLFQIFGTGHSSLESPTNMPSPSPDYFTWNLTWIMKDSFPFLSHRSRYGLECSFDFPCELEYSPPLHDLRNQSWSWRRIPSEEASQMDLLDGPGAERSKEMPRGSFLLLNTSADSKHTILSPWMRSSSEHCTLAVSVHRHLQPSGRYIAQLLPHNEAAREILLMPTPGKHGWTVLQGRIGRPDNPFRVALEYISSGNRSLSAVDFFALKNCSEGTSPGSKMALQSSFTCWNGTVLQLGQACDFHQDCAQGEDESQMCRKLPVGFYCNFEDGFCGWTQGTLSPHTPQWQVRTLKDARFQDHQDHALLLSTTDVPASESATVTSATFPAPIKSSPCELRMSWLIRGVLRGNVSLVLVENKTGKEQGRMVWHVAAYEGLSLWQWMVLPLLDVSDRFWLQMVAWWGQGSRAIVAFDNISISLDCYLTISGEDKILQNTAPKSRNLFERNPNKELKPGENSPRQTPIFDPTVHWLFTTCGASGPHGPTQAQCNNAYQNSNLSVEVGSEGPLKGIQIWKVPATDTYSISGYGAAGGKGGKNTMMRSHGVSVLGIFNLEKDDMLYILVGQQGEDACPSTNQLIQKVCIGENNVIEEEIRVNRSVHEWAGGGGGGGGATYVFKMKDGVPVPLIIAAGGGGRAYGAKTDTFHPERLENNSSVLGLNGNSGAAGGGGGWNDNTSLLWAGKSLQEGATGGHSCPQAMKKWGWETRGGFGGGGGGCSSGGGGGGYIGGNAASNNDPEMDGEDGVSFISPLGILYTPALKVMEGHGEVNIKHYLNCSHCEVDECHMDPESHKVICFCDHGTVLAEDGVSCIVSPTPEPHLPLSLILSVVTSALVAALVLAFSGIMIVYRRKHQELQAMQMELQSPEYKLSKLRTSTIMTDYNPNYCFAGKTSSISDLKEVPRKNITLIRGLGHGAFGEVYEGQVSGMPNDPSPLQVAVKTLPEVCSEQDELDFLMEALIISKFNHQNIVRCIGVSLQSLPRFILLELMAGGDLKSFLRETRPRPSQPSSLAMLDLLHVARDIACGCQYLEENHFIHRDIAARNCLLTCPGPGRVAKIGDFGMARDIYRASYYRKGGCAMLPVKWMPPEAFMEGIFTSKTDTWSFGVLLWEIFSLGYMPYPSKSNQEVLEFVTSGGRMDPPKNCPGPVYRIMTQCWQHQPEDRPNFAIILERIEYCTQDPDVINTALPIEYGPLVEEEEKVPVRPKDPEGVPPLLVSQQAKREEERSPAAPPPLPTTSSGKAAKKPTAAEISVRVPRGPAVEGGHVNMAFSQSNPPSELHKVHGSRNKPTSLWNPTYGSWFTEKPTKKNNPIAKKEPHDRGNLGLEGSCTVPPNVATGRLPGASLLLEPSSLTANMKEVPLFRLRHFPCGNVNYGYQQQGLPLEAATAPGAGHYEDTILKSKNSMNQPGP

Compound | Ki [µM]
O=c1[nH]ncc2cc(N3CCC(O)CC3)nc(Nc3ccc(CN4CCCC4)cc3Cl)c12 [Example 96, 5-{[2-chloro-4-(pyrrolidin-1-ylmethyl)phenyl]amino}-7-(4-hydroxypiperidin-1-yl)pyrido[3,4-d]pyridazin-4(3H)-one] | 0.009
O=c1[nH]ncc2cc(N3CC(O)C3)nc(Nc3ccc(CN4CCCC4)cc3Cl)c12 [Example 97, 5-{[2-chloro-4-(pyrrolidin-1-ylmethyl)phenyl]amino}-7-(3-hydroxyazetidin-1-yl)pyrido[3,4-d]pyridazin-4(3H)-one] | 0.074
COc1cc(C2CCNCC2)ccc1Nc1nc(Oc2ccccc2Cl)cc2cnnc(O)c12 [Example 98, 7-(2-chlorophenoxy)-5-{[2-methoxy-4-(piperidin-4-yl)phenyl]amino}pyrido[3,4-d]pyridazin-4-ol] | 0.009
COc1cc(C2CCNCC2)ccc1Nc1nc(NCC2CC2)cc2cnnc(O)c12 [Example 99, 7-[(cyclopropylmethyl)amino]-5-{[2-methoxy-4-(piperidin-4-yl)phenyl]amino}pyrido[3,4-d]pyridazin-4-ol] | 0.006
COc1cc(C2CCNCC2)ccc1Nc1cc(Cc2ccccc2Cl)nc2cn[nH]c(=O)c12 [Example 100, 2-(2-chlorobenzyl)-4-{[2-methoxy-4-(piperidin-4-yl)phenyl]amino}pyrido[2,3-d]pyridazin-5(6H)-one] | 0.004
COc1cc(C2CCNCC2)ccc1Nc1cc(Cc2c(Cl)cccc2Cl)nc2cn[nH]c(=O)c12 [Example 101, 2-(2,6-dichlorobenzyl)-4-{[2-methoxy-4-(piperidin-4-yl)phenyl]amino}pyrido[2,3-d]pyridazin-5(6H)-one] | 0.001
COc1cc(C2CCNCC2)ccc1Nc1cc(CCN2CCOCC2)nc2cn[nH]c(=O)c12 [Example 102, 4-{[2-methoxy-4-(piperidin-4-yl)phenyl]amino}-2-[2-(morpholin-4-yl)ethyl]pyrido[2,3-d]pyridazin-5(6H)-one] | 0.331
O=c1[nH]ncc2cc(Oc3ccccc3Cl)nc(Nc3ccc(N4CCNCC4)cn3)c12 [Example 103, 7-(2-chlorophenoxy)-5-{[5-(piperazin-1-yl)pyridin-2-yl]amino}pyrido[3,4-d]pyridazin-4(3H)-one] | 0.02
COc1cc(C2CCNCC2)ccc1Nc1cc(CCC2CC2)nc2cn[nH]c(=O)c12 [Example 104, 2-(2-cyclopropylethyl)-4-{[2-methoxy-4-(piperidin-4-yl)phenyl]amino}pyrido[2,3-d]pyridazin-5(6H)-one] | 0.075
COc1cc(C(=O)N2CCCC2)ccc1Nc1nc(Oc2ccccc2Cl)cc2cnnc(O)c12 [Example 105, (4-{[7-(2-chlorophenoxy)-4-hydroxypyrido[3,4-d]pyridazin-5-yl]amino}-3-methoxyphenyl)(pyrrolidin-1-yl)methanone] | > 0.47
CCOc1cc(C2CCNCC2)ccc1Nc1nc(Oc2ccccc2Cl)cc2cn[nH]c(=O)c12 [Example 106, 7-(2-chlorophenoxy)-5-{[2-ethoxy-4-(piperidin-4-yl)phenyl]amino}pyrido[3,4-d]pyridazin-4(3H)-one] | 0.021
COc1cc(C2CCNCC2)ccc1Nc1cc(Cc2ccccc2F)nc2cn[nH]c(=O)c12 [Example 107, 2-(2-fluorobenzyl)-4-{[2-methoxy-4-(piperidin-4-yl)phenyl]amino}pyrido[2,3-d]pyridazin-5(6H)-one] | 0.016
COc1cc(C2CCNCC2)ccc1Nc1cc(Cc2cccc(Cl)c2Cl)nc2cn[nH]c(=O)c12 [Example 108, 2-(2,3-dichlorobenzyl)-4-{[2-methoxy-4-(piperidin-4-yl)phenyl]amino}pyrido[2,3-d]pyridazin-5(6H)-one] | 0.008
COc1cc(C2CCNCC2)ccc1Nc1cc(Cc2c(F)cccc2F)nc2cn[nH]c(=O)c12 [Example 109, 2-(2,6-difluorobenzyl)-4-{[2-methoxy-4-(piperidin-4-yl)phenyl]amino}pyrido[2,3-d]pyridazin-5(6H)-one] | 0.006
COc1cc(C2CCNCC2)ccc1Nc1cc(Cc2cc(F)ccc2F)nc2cn[nH]c(=O)c12 [Example 110, 2-(2,5-difluorobenzyl)-4-{[2-methoxy-4-(piperidin-4-yl)phenyl]amino}pyrido[2,3-d]pyridazin-5(6H)-one] | 0.016
COc1cc(C2CCNCC2)ccc1Nc1cc(Cc2cccc(F)c2F)nc2cn[nH]c(=O)c12 [Example 111, 2-(2,3-difluorobenzyl)-4-{[2-methoxy-4-(piperidin-4-yl)phenyl]amino}pyrido[2,3-d]pyridazin-5(6H)-one] | 0.015
COc1cc(C2CCNCC2)ccc1Nc1cc(Cc2c(F)cccc2Cl)nc2cn[nH]c(=O)c12 [Example 112, 2-(2-chloro-6-fluorobenzyl)-4-{[2-methoxy-4-(piperidin-4-yl)phenyl]amino}pyrido[2,3-d]pyridazin-5(6H)-one] | 0.004
COc1ccccc1Nc1nc(Nc2ccc(N3CCNCC3)cc2)cc2cnnc(O)c12 [Example 113, 5-[(2-methoxyphenyl)amino]-7-{[4-(piperazin-1-yl)phenyl]amino}pyrido[3,4-d]pyridazin-4-ol] | 0.058
CCOc1cc(N2CCNCC2)ccc1Nc1nc(Oc2ccccc2Cl)cc2cnnc(O)c12 [Example 114, 7-(2-chlorophenoxy)-5-{[2-ethoxy-4-(piperazin-1-yl)phenyl]amino}pyrido[3,4-d]pyridazin-4-ol] | 0.008
COc1cc(N2CCNCC2)ccc1Nc1nc(Oc2ccccc2C#N)cc2cn[nH]c(=O)c12 [Example 115, 2-[(5-{[2-methoxy-4-(piperazin-1-yl)phenyl]amino}-4-oxo-3,4-dihydropyrido[3,4-d]pyridazin-7-yl)oxy]benzonitrile] | 0.006
COc1cc(CN2CCN(C)CC2)ccc1Nc1cc(Cc2ccccc2Cl)nc2cn[nH]c(=O)c12 [Example 116, 2-(2-chlorobenzyl)-4-({2-methoxy-4-[(4-methylpiperazin-1-yl)methyl]phenyl}amino)pyrido[2,3-d]pyridazin-5(6H)-one] | 0.033
O=c1[nH]ncc2cc(Oc3ccccc3Cl)nc(Nc3ccc(N4CCNCC4)cc3OC(F)F)c12 [Example 117, 7-(2-chlorophenoxy)-5-{[2-(difluoromethoxy)-4-(piperazin-1-yl)phenyl]amino}pyrido[3,4-d]pyridazin-4(3H)-one] | 0.015
O=c1[nH]ncc2cc(Oc3ccccc3Cl)nc(Nc3ccc(C4CCNCC4)cn3)c12 [Example 118, 7-(2-chlorophenoxy)-5-{[5-(piperidin-4-yl)pyridin-2-yl]amino}pyrido[3,4-d]pyridazin-4(3H)-one] | 0.015
COc1cc(N2CCNCC2)ccc1Nc1nc(Oc2ccccc2Cl)cc2c(C)nnc(O)c12 [Example 119, 7-(2-chlorophenoxy)-5-{[2-methoxy-4-(piperazin-1-yl)phenyl]amino}-1-methylpyrido[3,4-d]pyridazin-4-ol] | 0.015
N#Cc1cc(N2CCNCC2)ccc1Nc1nc(Oc2ccccc2Cl)cc2cnnc(O)c12 [Example 120, 2-{[7-(2-chlorophenoxy)-4-hydroxypyrido[3,4-d]pyridazin-5-yl]amino}-5-(piperazin-1-yl)benzonitrile] | 0.002
